Measured values as given in PubChem BioAssay (NCI).
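48-hour exposure; five concentrations; linearly interpolated endpoints. TGI: concentration producing complete growth inhibition.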

Experiments:
Assay in all cases: growth of human tumour cells (NCI), 48 h
[1] = system: 786-0 renal
[2] = system: A549 NSCLC
[3] = system: CAKI-1 renal
[4] = system: CCRF-CEM leukemia
[5] = system: HOP-62 NSCLC
[6] = system: IGROV1 ovarian
[7] = system: M19-MEL melanoma
[8] = system: MOLT-4 leukemia
[9] = system: OVCAR-5 ovarian
[10] = system: RPMI-8226 leukemia
[11] = system: SF-268 CNS
[12] = system: SK-MEL-5 melanoma
[13] = system: SR leukemia
[14] = system: TK-10 renal
[15] = system: KM12 colon
[16] = system: NCI-H522 lung
[17] = system: DU-145 prostate
[18] = system: MCF7 breast
[19] = system: MDA-MB-435
[20] = system: MDA-N

Compound | TGI [1] [µM] | TGI [2] [µM] | TGI [3] [µM] | TGI [4] [µM] | TGI [5] [µM] | TGI [6] [µM] | TGI [7] [µM] | TGI [8] [µM] | TGI [9] [µM] | TGI [10] [µM] | TGI [11] [µM] | TGI [12] [µM] | TGI [13] [µM] | TGI [14] [µM] | TGI [15] [µM] | TGI [16] [µM] | TGI [17] [µM] | TGI [18] [µM] | TGI [19] [µM] | TGI [20] [µM]
CCCCCCCCOC(CO)CO | > 100 | > 100 | > 100 | > 100 | > 100 | > 100 | > 100 | > 100 | > 100 | > 100 | > 100 | > 100 | > 100 | > 100 | – | – | – | – | – | –
O=C1CCCC/C1=C1\C(=O)Nc2cc(F)ccc21 | > 100 | > 100 | > 100 | > 100 | > 100 | > 100 | > 100 | > 100 | > 100 | > 100 | > 100 | > 100 | – | > 100 | > 100 | > 100 | – | – | – | –
COC(=O)C1C(OC(=O)C(Cl)(c2ccccc2)c2ccccc2)CC2CCC1N2C (stereo unspecified) | > 100 | > 100 | > 100 | > 100 | > 100 | > 100 | – | > 100 | > 100 | > 100 | > 100 | > 100 | > 100 | > 100 | > 100 | > 100 | > 100 | > 100 | > 100 | > 100
CCC(=O)N1NC(=O)C(CC)(CC)C1=O | > 100 | > 100 | > 100 | > 100 | > 100 | > 100 | – | > 100 | > 100 | > 100 | > 100 | > 100 | > 100 | > 100 | > 100 | > 100 | > 100 | > 100 | > 100 | > 100
O=C1c2ccccc2C(=O)c2c1ccc1nc3c(nc21)-c1c2ccccc2cc2cccc-3c12 | > 100 | > 100 | > 100 | > 100 | > 91.6 | > 57.4 | – | > 100 | > 100 | > 100 | > 100 | > 100 | > 100 | > 100 | > 94.9 | > 100 | > 81.7 | > 91.5 | 38.6 | > 100
CCOC(=O)C(NCc1ccc2c(c1)OCO2)(NC(=O)c1ccccc1)C(F)(F)F (stereo unspecified) | > 100 | > 100 | > 100 | 67.8 | > 100 | > 100 | – | 50.8 | > 100 | > 100 | > 100 | > 100 | > 100 | > 100 | > 100 | > 100 | > 100 | > 100 | > 100 | > 100
O=C1Nc2ccccc2S/C1=C\c1cccc(C(F)(F)F)c1 | > 100 | > 100 | 37.4 | > 100 | > 100 | > 100 | – | > 100 | > 100 | > 100 | > 100 | > 100 | > 100 | > 100 | > 100 | > 100 | > 100 | > 100 | > 100 | > 100
O=C1C(Cl)=C(N2C(=O)CCCC2=O)C(=O)c2ccccc21 | 33 | 54.7 | 27.2 | 23.3 | > 100 | 30.1 | – | 55.6 | 38.1 | 40.9 | > 100 | 30.2 | 57.1 | 31.3 | > 100 | 4.53 | 30.2 | 52.1 | 44.9 | 31
Cc1ccc2nc(-c3ccc(-n4c(C)nc(=O)c(-c5ccc(F)cc5)c4C)cc3)sc2c1 | 29.9 | 35.6 | 35.1 | 32.7 | 45.5 | 31.4 | – | 27.7 | 35.9 | 39.6 | 53.9 | 24.5 | 29.5 | 30.8 | 38.4 | 35.2 | 30 | 34.7 | 32.2 | 32.2
O=c1[nH]c(=O)n(C2OC(CO)C(O)C2O)c2ccsc12 (stereo unspecified) | > 100 | > 100 | > 100 | > 100 | > 100 | > 100 | – | > 100 | > 100 | > 100 | > 100 | > 100 | > 100 | > 100 | > 100 | > 100 | > 100 | > 100 | > 100 | > 100
CCCc1c[nH]c(-c2ccc(-c3cc(CCC)c(C=O)[nH]3)s2)c1 | 27.7 | 17.6 | – | 91.4 | – | 45.5 | 21.6 | 86.2 | – | – | 34.6 | 30.6 | – | 28.7 | 28.5 | 31.1 | – | – | – | –
O=C(O)Cc1cccc2c1Oc1ccccc1S2 | > 100 | > 100 | – | > 100 | > 100 | > 100 | > 100 | > 100 | – | > 100 | > 100 | > 100 | – | > 100 | > 100 | – | – | – | – | –
Cn1cc(-c2cnc(-c3cn(C)c4ccccc34)cn2)c2ccccc21 | 29.9 | > 100 | > 100 | 3.58 | > 100 | > 50.5 | – | > 100 | > 100 | > 44.4 | > 87.5 | 25.3 | > 100 | > 100 | 14.8 | 15.4 | > 58.5 | > 27.1 | 7.38 | 3.54
Cc1nn(C(=O)c2ccc(Cl)cc2)c2c1C(c1cccc([N+](=O)[O-])c1)SC(N)=N2 (stereo unspecified) | > 10 | > 10 | > 10 | > 10 | > 10 | > 10 | – | > 10 | > 10 | > 10 | > 10 | > 10 | > 10 | > 10 | > 10 | > 10 | > 10 | > 10 | > 10 | > 10
CCOC(=O)C(C)(C(=O)OCC)/C(Cl)=C\Cl | > 100 | > 100 | > 100 | > 100 | > 100 | > 100 | – | > 100 | > 100 | > 100 | > 100 | > 100 | > 100 | > 100 | > 100 | > 100 | > 100 | > 100 | > 100 | > 100
CSCCC(N)P(C)(=O)O (stereo unspecified) | > 100 | > 100 | > 100 | > 100 | > 100 | > 100 | – | > 100 | > 100 | > 100 | > 100 | > 100 | > 100 | > 100 | > 100 | > 100 | > 100 | > 100 | > 100 | > 100
CCC1(CCSC(=N)N)C(=O)NC(=O)NC1=O | > 100 | > 100 | > 100 | > 100 | > 100 | > 100 | – | > 100 | > 100 | > 100 | > 100 | > 100 | > 100 | > 100 | > 100 | > 100 | > 100 | > 100 | > 100 | > 100
Fc1ccc(OCc2nc3cc(C(F)(F)F)ccc3nc2-c2ccccc2)cc1 | > 100 | > 100 | > 100 | > 93.1 | > 100 | > 100 | – | > 67.6 | > 100 | > 100 | > 100 | > 100 | > 100 | > 100 | > 100 | > 100 | > 100 | > 100 | > 100 | > 100
N/C(=N\N=C\c1c[nH]c2cc(C(F)(F)F)ccc2c1=O)NO | > 10 | > 10 | > 10 | > 10 | > 10 | > 10 | – | > 10 | > 10 | > 10 | > 10 | > 10 | > 10 | > 10 | > 10 | > 10 | > 10 | > 10 | > 10 | > 10
CC1(C)CC(=O)C2=C(C1)S/C(=C1/SC3=C(S1)C(=O)CC(C)(C)C3)S2 | > 251 | > 251 | – | > 251 | > 251 | > 251 | > 251 | > 251 | – | > 251 | > 251 | – | > 251 | > 251 | > 251 | > 251 | – | – | – | –
O=C(c1ccccc1)c1ccc(OCCOc2ccc(Nc3ccccc3)cc2)cc1 | > 100 | > 100 | > 100 | > 100 | 81.2 | > 100 | > 100 | > 100 | > 100 | – | > 100 | > 100 | > 100 | 84.3 | > 100 | 53.3 | – | – | – | –
NNC(=S)N/N=C(/C(=O)Nc1cc(Cl)ccc1Cl)C1C(=O)Nc2ccccc2S1=O (stereo unspecified) | > 100 | > 100 | > 100 | > 100 | > 100 | > 100 | > 100 | > 100 | > 100 | – | > 100 | > 100 | > 100 | > 100 | > 100 | > 100 | – | – | – | –
O=C(CCCN1CCC2(CC1)NC(=O)c1ccccc1O2)c1ccc(F)cc1 | > 100 | > 100 | > 100 | > 100 | > 100 | > 100 | – | > 100 | > 100 | > 100 | > 100 | > 100 | > 100 | > 100 | > 100 | > 100 | > 100 | > 100 | > 100 | > 100
O=c1oc2nc(-c3ccccc3)cc(C(F)(F)F)c2n1Cc1ccccc1 | > 100 | > 100 | > 100 | > 26.1 | > 100 | > 43.5 | – | > 100 | > 100 | > 30.8 | > 100 | > 100 | > 100 | > 100 | > 100 | > 100 | > 100 | > 100 | 3.13 | 2.68
O=C(O)C1=C(C(=O)O)N(c2ccncc2)C(c2ccco2)=CC1c1ccccc1[N+](=O)[O-] (stereo unspecified) | 4.06 | 35.9 | 34.6 | > 23.8 | 33.7 | 4.84 | – | 14.5 | 33.8 | > 24.6 | 36.1 | > 47.4 | 5.68 | 17.6 | 3.36 | 9.59 | 24.9 | 10.1 | > 56 | 20.7
CCSC1(SCC)CC(Cc2ccc(OC)cc2)N(C=NC(C)(C)C)C1 (stereo unspecified) | > 100 | > 100 | > 100 | 52.4 | > 100 | > 100 | 97.7 | 40.9 | > 100 | – | > 100 | 31.3 | 34.2 | 63.2 | 64.8 | 31.1 | – | – | – | –
O=C(O)c1ccccc1CC1Cc2ccc3c(c2C1=O)CCC3 (stereo unspecified) | > 100 | > 100 | > 100 | > 100 | > 100 | > 100 | – | > 100 | > 100 | > 100 | > 100 | > 100 | > 100 | > 100 | > 100 | > 100 | > 100 | > 100 | > 100 | > 100
